Laboratory results reported in US20250083204A1, “CUPRIAVIDUS METALLIDURANS CML2, ITS PREPARATION, AND ITS BIOR[…] FOR HEAVY METAL-CONTAMINATED ENVIRONMENT” (priority 2023, published 2025).
Several values for one entry are separate records, joined by “and”; a condition that tells them apart may be missing. Equal entries are not always repeated.

Columns and labels:
rice seedling = assay: Rice seedling root and shoot growth; assay type: in vivo; details: 14-day cultivation, cadmium alone
Description: FIG. 7A-7C are schematic diagrams illustrating an effect of Cupriavidus metallidurans CML2 inoculation on rice seedling growth and cadmium remediation. FIG. 7A illustrates the effects of Cupriavidus metallidurans CML2 on rice seedling morphology; FIG. 7B illustrates the effects of Cupriavidus metallidurans CML2 on relative lengths of the root and shoot under different conditions. C: control, treated with sterile NB medium; CML2: treated with strain CML2; Cd: treated with Cd^2+; CML2+Cd: treated with both CML2 and Cd^2+; FIG. 7C illustrates the effects of Cupriavidus metallidurans CML2 on cadmium accumulation in rice seedling roots and shoots; data represents means±SEM; different letters (a or b) above the columns indicate significant differences between the three groups using one-way ANOVA at P<0.05; “***” indicates statistically significant differences according to a t-test, P<0.001.
To assess the impact of strain CML2 as a facilitator for plant growth and a cadmium remediation agent, Embodiment 8 conducted an analysis on the relative lengths of rice roots and shoots as well as cadmium concentrations, under different treatments: control, Cupriavidus metallidurans CML2 (CML2), cadmium (Cd), and CML2+Cd (Simultaneous treatment with cadmium and CML2). The control group (C) consisted of rice plants cultured in a sterile nutrient solution.

[1] = test system: Cupriavidus metallidurans CML2; assay type: cell-based; details: for MIC: lowest concentration of heavy metal inhibiting growth of CML2
Description: Note that the MIC values refer to the lowest concentration of each heavy metal required to inhibit the growth of Cupriavidus metallidurans CML2.

Row | Molecule | inhibition of rice root and shoot growth compared to control (rice seedling) | tolerance of CML2 to heavy metal [1] | MIC [1]
1 | [Cd+2] [Cadmium (Cd^2+), Cadmium] | approximately 89% | 13 mM and 2400 mg/L | 13.1 mM
2 | [Cu+2] [Copper (Cu^2+), Copper] |  |  | 2.0 mM
3 | [Mn+2] [Manganese (Mn^2+), Manganese] |  | 110 mM | 110 mM
4 | [Ni+2] [Nickel (Ni^2+), Nickel] |  |  | 2.5 mM
5 | [Se+4] [Selenium (Se^4+), Selenium] |  |  | 45 mM
6 | [Zn+2] [Zinc (Zn^2+), Zinc] |  |  | 20 mM
7 | Mercury [Mercury (Hg^2+)] |  | 0.03 mM | 0.03 mM
